Measurements as given in article PMC9227351, “A Novel Antihypertensive Pentapeptide Identified in Quinoa Bran Globulin Hydrolysates: Purification, In Silico Characterization, Molecular Docking with ACE and Stability against Different Food-Processing Conditions” (Nutrients, 2022).
Entries after “also recorded” stand apart in the source; their conditions may differ. Ends that are not written are not given here.

Key:
[1] = proline-rich literature peptides; cited from earlier work
Text: The main reason was the structural characteri ...

[2] = test system: ACE; conditions: literature peptides; ref 13 (GYGYNY), 20 (SSYYPFK), 34 (NMAINPSKENLCSTFCK); read-out: IC50 of ACE-inhibitory activity; cited from earlier work
Text: Obviously, SAPPP was a pentapeptide of high content of Pro. […] Some special acid residues including aromatic amino acids (Phe, Trp and Tyr) and Pro in the C-terminal tripeptides can tightly bind with active sites of ACE and show ... || Peptides can bind to the key binding pockets of ACE (S1, S1′, and S2′), and disturb the combination of ACE and the […] (angiotensin-I or bradykinin), thereby showing a competitive inhibition pattern. […] Moreover, the docking T-Score of SAPPP (8.88) was higher than the required value (6.0).

[3] = test system: ACE; experiment: Stability against simulated gastrointestinal digestion, read out as ACE-inhibitory activity; format: in vitro ADME; conditions: peptide 1 mg/mL; pepsin pH 2.0 37 °C 90 min, then trypsin/bile salt pH 6.8 37 °C 180 min; activity before versus after digestion; p > 0.05
Procedure: As per the same procedure described by Jimsheena and Gowda, inhibition activity on ACE was evaluated by comparing the quantity of produced hippuric acid before and after the addition of the peptides. IC50 value was calculated from the regression equation of ACE inhibition percentage versus different concentrations of the sample, and defined as the concentration of sample when ACE-inhibitory activity was 50%.
Following the method of Sun et al., mixtures of trypsin (0.45 g), pig bile salt (3 g) and NaHCO3 (6.25 g) dissolved in 100 mL of dH2O (pH 6.8) were used to simulate intestinal fluid, whereas pepsin (40 mg) and NaCl (0.877 g) dissolved in 100 mL of dH2O (pH 2.0) were used as gastric fluid. Peptide solutions (dissolved in ultrapure water, 1 mg/mL) were incubated at 37 °C in a stirring bath (140 r/min) for 15 min; then, the simulated gastric fluid was added (gastric fluid: peptide solution = 1:10 v/v) and incubated at 37 °C (140 r/min) for 90 min. Then, the reaction solution was adjusted to pH 6.8 with Na2HPO4. The simulated intestinal fluid (the fluid: peptide solution = 1:10, v/v) was added and stirred (140 r/min) at 37 °C for 180 min. All the reaction solutions were heated at 100 °C for 8 min to inactivate the enzyme. Stability was calculated by comparing the ACE-inhibitory activities of the peptides before and after the digestion.

Substance | Stability against gastrointestinal digestion [1] | IC50 [2] | Stability of ACE-inhibitory activity during simulated gastrointestinal digestion [3]
ELHPQ [proline-rich peptide identified in canary seed] | excellent stability | – | –
GYGYNY | – | 384 µM | –
KPVPR [proline-rich peptide identified in canary seed] | excellent stability | – | –
LHPQ [proline-rich peptide identified in canary seed] | excellent stability | – | –
NMAINPSKENLCSTFCK | – | 129 µM | –
SAPPP [SAPPP, Ser-Ala-Pro-Pro-Pro] | – | – | resistant; also recorded: relatively stable
SSYYPFK | excellent stability | 91.8 µM | –
